By IC50 is commonly meant the concentration that gives 50% inhibition.

Chain of USP14 (P54578 whole entry, looked up): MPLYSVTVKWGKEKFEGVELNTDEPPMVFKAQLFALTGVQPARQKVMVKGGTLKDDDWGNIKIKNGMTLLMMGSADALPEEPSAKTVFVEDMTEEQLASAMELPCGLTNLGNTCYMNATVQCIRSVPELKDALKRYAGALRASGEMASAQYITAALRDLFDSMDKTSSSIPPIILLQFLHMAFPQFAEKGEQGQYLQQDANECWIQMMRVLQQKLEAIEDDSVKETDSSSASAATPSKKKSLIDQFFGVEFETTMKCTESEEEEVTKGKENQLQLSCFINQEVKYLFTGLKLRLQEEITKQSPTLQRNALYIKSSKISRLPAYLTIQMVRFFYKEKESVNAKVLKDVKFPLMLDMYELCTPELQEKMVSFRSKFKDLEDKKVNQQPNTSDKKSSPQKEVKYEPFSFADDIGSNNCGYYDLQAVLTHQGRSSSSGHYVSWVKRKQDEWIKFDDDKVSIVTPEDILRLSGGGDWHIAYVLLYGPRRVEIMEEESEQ

The test has as its target USP14 (Homo sapiens (Human), UniProt P54578). Description: Usp14 inhibition assay (Example 5A, A-series compounds). The format is biochemical. The settings on record: average value from a minimum of two experimental determinations; read-out: Usp14 IC50 Category. An excerpt: Example 5A: Usp14 Inhibition Assay
The IC50 values in the Table below represent the average value from a minimum of two experimental determinations.
With `Cc1c(C(=O)CN2C3CCC2CC3)c2ccc(CC#N)cc2n1-c1ccc(Cl)cc1` [Example 30A], the IC50 fell in the range of 50 to 100 nM.

With `Cc1c(C(=O)CN2C3CCC2CC(O)C3)c2ccc(CCCC#N)cc2n1-c1ccc(Cl)cc1` (centres unmarked) [Example 25A, 4-(1-(4-Chlorophenyl)-3-(2-(3-hydroxy-8-azabicyclo[3.2.1]octan-8-yl)acetyl)-2-methyl-1H-indol-6-yl)butanenitrile], the IC50 is > 100 nM.

`Cc1c(C(=O)CN2[C@H]3CC[C@@H]2[C@@H](O)C3)c2ccc(CCS(C)(=O)=O)cc2n1-c1ccc(Cl)cc1` [Example 6A, 1-(1-(4-Chlorophenyl)-2-methyl-6-(2-(methylsulfonyl)ethyl)-1H-indol-3-yl)-2-((1R,2S,4S)-2-hydroxy-7-azabicyclo[2.2.1]heptan-7-yl)ethan-1-one]: the IC50 was < 50 nM.

For `Cc1c(C(=O)CN2C3CCC2[C@@H](O)C3)c2ccc(CCC#N)cc2n1-c1ccc(Cl)cc1` (mixture of isomers) [Example 10A, (±)-3-(1-(4-Chlorophenyl)-3-(2-((2S)-2-hydroxy-7-azabicyclo[2.2.1]heptan-7-yl)acetyl)-2-methyl-1H-indol-6-yl)propanenitrile], the IC50 is < 50 nM.

In the case of `Cc1c(C(=O)CN2[C@@H]3CC[C@H]2C[C@](O)(C(C)C)C3)c2ccc(CCC#N)cc2n1-c1ccc(Cl)cc1` [Example 32A, 3-(1-(4-Chlorophenyl)-3-(2-(3-hydroxy-3-isopropyl-8-azabicyclo[3.2.1]octan-8-yl)acetyl)-2-methyl-1H-indol-6-yl)propanenitrile], the IC50 lay within 50 to 100 nM.

On to `Cc1c(C(=O)CN2[C@@H]3CC[C@H]2C[C@H](O)C3)c2ccc(CCS(=O)(=O)C3CC3)cc2n1-c1ccc(Cl)cc1` [Example 24A, 1-(1-(4-Chlorophenyl)-6-(2-(cyclopropylsulfonyl)ethyl)-2-methyl-1H-indol-3-yl)-2-((1R,3s,5S)-3-hydroxy-8-azabicyclo[3.2.1]octan-8-yl)ethan-1-one], for which the IC50 fell in the range of 50 to 100 nM.

Consider `Cc1c(C(=O)CN2C3CCC2CC(O)C3)c2ccc(CCC3=NCCN3C)cc2n1-c1ccc(Cl)cc1` [Example 29A, 1-(1-(4-Chlorophenyl)-2-methyl-6-(2-(1-methyl-4,5-dihydro-1H-bimidazol-2-yl)ethyl)-1H-indol-3-yl)-2-((1R,3R,5S)-3-hydroxy-8-azabicyclo[3.2.1]octan-8-yl)ethan-1-one], for which the IC50 was < 50 nM.

For the compound `CO[C@H]1CC2CCC1N2CC(=O)c1c(C)n(-c2ccc(Cl)cc2)c2cc(CCCC#N)ccc12` (mixture of isomers) [Example 19A, (±)-4-(1-(4-Chlorophenyl)-3-(2-((2S)-2-methoxy-7-azabicyclo[2.2.1]heptan-7-yl)acetyl)-2-methyl-1H-indol-6-yl)butanenitrile], the IC50 was < 50 nM.

`CO[C@H]1C[C@@H]2CC[C@H]1N2CC(=O)c1c(C)n(-c2ccc(Cl)cc2)c2cc(CC3COC3)ccc12` [Example 12A, 1-(1-(4-Chlorophenyl)-2-methyl-6-(oxetan-3-ylmethyl)-1H-indol-3-yl)-2-((1R,2S,4S)-2-methoxy-7-azabicyclo[2.2.1]heptan-7-yl)ethan-1-one]: the IC50 was 50 to 100 nM.

In the case of `Cc1c(C(=O)CN2C3CCC2CC3)c2ccc(CCC#N)cc2n1-c1ccc(Cl)cc1` [Example 8A, 3-(3-(2-(7-Azabicyclo[2.2.1]heptan-7-yl)acetyl)-1-(4-chlorophenyl)-2-methyl-1H-indol-6-yl)propanenitrile], the IC50 is < 50 nM.

`Cc1c(C(=O)CN2[C@@H]3CC[C@H]2C[C@@H](O)C3)c2ccc(CC3COC3)cc2n1-c1ccc(Cl)cc1` [Example 22A, 1-(1-(4-Chlorophenyl)-2-methyl-6-(oxetan-3-ylmethyl)-1H-indol-3-yl)-2-((1R,3r,5S)-3-hydroxy-8-azabicyclo[3.2.1]octan-8-yl)ethan-1-one]: the IC50 was in the range of 50 to 100 nM.

Consider `Cc1c(C(=O)CN2C3CCC2CC(O)C3)c2ccc(CCC#N)cc2n1-c1ccc(Cl)cc1` [Example 20A, 3-(1-(4-Chlorophenyl)-3-(2-((1R,3R,5S)-3-hydroxy-8-azabicyclo[3.2.1]octan-8-yl)acetyl)-2-methyl-1H-indol-6-yl)propanenitrile], for which the IC50 was > 100 nM.

In the case of `Cc1c(C(=O)CN2C3CCC2CC(O)C3)c2ccc(CCS(=O)(=O)C3CC3)cc2n1-c1ccc(Cl)cc1` [Example 23A, 1-(1-(4-Chlorophenyl)-6-(2-(cyclopropylsulfonyl)ethyl)-2-methyl-1H-indol-3-yl)-2-((1R,3R,5S)-3-hydroxy-8-azabicyclo[3.2.1]octan-8-yl)ethan-1-one], the 50% inhibitory concentration (IC50) is < 50 nM.

As for `Cc1c(C(=O)CN2CCC(O)CC2)c2ccc(CCC#N)cc2n1-c1ccc(Cl)cc1` [Example 9A], the IC50 was > 100 nM.

On to `Cc1c(C(=O)CN2C3CCCC2CC3)c2ccc(CCC#N)cc2n1-c1ccc(Cl)cc1` [Example 33A, 3-(3-(2-(8-Azabicyclo[3.2.1]octan-8-yl)acetyl)-1-(4-chlorophenyl)-2-methyl-1H-indol-6-yl)propanenitrile], for which the IC50 is < 50 nM.

Turning to `Cc1c(C(=O)CN2C3CCC2CC3)c2ccc(CC3COC3)cc2n1-c1ccc(Cl)cc1` [Example 11A, 2-(7-Azabicyclo[2.2.1]heptan-7-yl)-1-(1-(4-chlorophenyl)-2-methyl-6-(oxetan-3-ylmethyl)-1H-indol-3-yl)ethan-1-one], the IC50 was < 50 nM.

Take `Cc1c(C(=O)CN2C3CCC2CC3)c2ccc(CCS(C)(=O)=O)cc2n1-c1ccc(Cl)cc1` [Example 1A, 2-(7-Azabicyclo[2.2.1]heptan-7-yl)-1-(1-(4-chlorophenyl)-2-methyl-6-(2-(methylsulfonyl)ethyl)-1H-indol-3-yl)ethan-1-one]: the IC50 was < 50 nM.

As for `Cc1c(C(=O)CN2C3CCC2CC(O)C3)c2ccc(CCS(C)(=O)=O)cc2n1-c1ccc(Cl)cc1` [Example 5A, 1-(1-(4-Chlorophenyl)-2-methyl-6-(2-(methylsulfonyl)ethyl)-1H-indol-3-yl)-2-((1R,3S,5S)-3-hydroxy-8-azabicyclo[3.2.1]octan-8-yl)ethan-1-one], the IC50 was < 50 nM.

In the case of `Cc1c(C(=O)CN2C3CC[C@@H]2C[C@](O)(C(C)(C)C)C3)c2ccc(CCC#N)cc2n1-c1ccc(Cl)cc1` (stereo in doubt) [Example 31A, 3-(3-(2-(3-(tert-Butyl)-3-hydroxy-8-azabicyclo[3.2.1]octan-8-yl)acetyl)-1-(4-chlorophenyl)-2-methyl-1H-indol-6-yl)propanenitrile], the 50% inhibitory concentration (IC50) was > 100 nM.

`Cc1c(C(=O)CN2C3CCC2CC3)c2ccc(CCCC#N)cc2n1-c1ccc(Cl)cc1` [Example 17A, 4-(3-(2-(7-Azabicyclo[2.2.1]heptan-7-yl)acetyl)-1-(4-chlorophenyl)-2-methyl-1H-indol-6-yl)butanenitrile]: the IC50 was < 50 nM.

(Values after patent US11560385B2, “Proteasome activity enhancing compounds” (Proteostasis Therapeutics, Inc., priority 2018, dated 2023).)
